Calls of active or inactive are those of the source. No cut-off for these calls is given here.
Experiments:
[1] = tested on: Giardia intestinalis; test: Antigiardial activity against Giardia lamblia WB infected in ig dosed CD-1 mouse assessed as reduction in parasite growth after 8 days; assay type: functional; details: Giardia duodenalis, po, 192 h, time 8 day
[2] = tested on: Entamoeba histolytica; test: Antimicrobial activity against Entamoeba histolytica HM1:MMS assessed as reduction in amoeba growth; assay type: functional, organism-based; details: HM-1:IMSS
[3] = tested on: Entamoeba histolytica; test: Antimicrobial activity against Entamoeba histolytica […] trophozoites assessed as decrease in number of vacuoles at IC50 concentration after 48 hrs by uranyl acetate staining based TEM analysis; assay type: functional, organism-based; details: HM-1:IMSS
[4] = tested on: Entamoeba histolytica; test: Antimicrobial activity against Entamoeba histolytica […] trophozoites assessed as decrease in granularity at IC50 concentration after 48 hrs by uranyl acetate staining based TEM analysis; assay type: functional, organism-based; details: HM-1:IMSS
[5] = tested on: Entamoeba histolytica; test: Antimicrobial activity against Entamoeba histolytica […] trophozoites assessed as decrease in size of cells at IC50 concentration after 48 hrs by uranyl acetate staining based TEM analysis; assay type: functional, organism-based; details: HM-1:IMSS
[6] = tested on: Entamoeba histolytica; test: Antimicrobial activity against Entamoeba histolytica […] trophozoites assessed as abnormal condensation of chromatin at IC50 concentration after 48 hrs by uranyl acetate staining based TEM analysis; assay type: functional, organism-based; details: HM-1:IMSS
[7] = tested on: Entamoeba histolytica; test: Induction of ROS generation in Entamoeba histolytica […] trophozoites at IC50 concentration incubated for 1 hr by DCFDA staining based assay; assay type: functional, organism-based; details: HM-1:IMSS
[8] = tested on: Entamoeba histolytica; test: Induction of ROS generation in Entamoeba histolytica […] trophozoites at IC50 concentration incubated for 1 hr in presence of trolox by DCFDA staining based assay relative to control; assay type: functional, HM-1:IMSS
[9] = tested on: Entamoeba histolytica; test: Antimicrobial activity against Entamoeba histolytica […] trophozoites infected in Syrian hamster assessed as total bilirubin level at 0.05 mg/kg, ip at 4 days post infection and measured on day 8 (reference value: 0.8 +/- 0.2 mg/dl); assay type: functional, HM-1:IMSS; details: time 4 day
[10] = tested on: Entamoeba histolytica; test: Antimicrobial activity against Entamoeba histolytica […] trophozoites infected in Syrian hamster assessed as inhibition of amoebic liver abscess at 0.5 mg/kg, ip at 4 days post infection and measured on day 8 by NMR analysis; assay type: functional, organism-based; details: HM-1:IMSS, time 4.0 day
[11] = tested on: Entamoeba histolytica; test: Induction of apoptosis in Entamoeba histolytica […] trophozoites assessed as viable cells at IC50 concentration after 48 hrs by annexin-V-FITC/propidium iodide staining based flow cytometric analysis (reference value: 98%); assay type: functional, HM-1:IMSS
[12] = tested on: Entamoeba histolytica; test: Induction of apoptosis in Entamoeba histolytica […] trophozoites assessed as early apoptotic cells at IC50 concentration after 48 hrs by annexin-V-FITC/propidium iodide staining based flow cytometric analysis (reference value: 0.9%); assay type: functional, HM-1:IMSS
[13] = tested on: Entamoeba histolytica; test: Induction of apoptosis in Entamoeba histolytica […] trophozoites assessed as late apoptotic cells at IC50 concentration after 48 hrs by annexin-V-FITC/propidium iodide staining based flow cytometric analysis (reference value: 0.7%); assay type: functional, HM-1:IMSS
[14] = tested on: Entamoeba histolytica; test: Induction of apoptosis in Entamoeba histolytica […] trophozoites assessed as necrotic cells at IC50 concentration after 48 hrs by annexin-V-FITC/propidium iodide staining based flow cytometric analysis (reference value: 0.4%); assay type: functional, HM-1:IMSS
[15] = tested on: Entamoeba histolytica; test: Antimicrobial activity against Entamoeba histolytica […] trophozoites infected in Syrian hamster assessed as urea level at 0.05 mg/kg, ip at 4 days post infection and measured on day 8 (reference value: 14 +/- 1 mg/dl); assay type: functional, HM-1:IMSS; details: time 4 day
[16] = tested on: Entamoeba histolytica; test: Antimicrobial activity against Entamoeba histolytica […] trophozoites infected in Syrian hamster assessed as inhibition of amoebic liver abscess by abundant monocytes at 0.5 mg/kg, ip at 4 days post infection and measured on day 8 by H and E staining based microscopic method; assay type: functional, organism-based; details: HM-1:IMSS, time 4.0 day
[17] = tested on: Entamoeba histolytica; test: Antimicrobial activity against Entamoeba histolytica […] trophozoites infected in Syrian hamster assessed as inhibition of amoebic liver abscess by measuring edema at 0.5 mg/kg, ip at 4 days post infection and measured on day 8 by H and E staining based microscopic method; assay type: functional, organism-based; details: HM-1:IMSS, time 4.0 day
[18] = tested on: Entamoeba histolytica; test: Antimicrobial activity against Entamoeba histolytica […] trophozoites infected in Syrian hamster assessed as inhibition of amoebic liver abscess by measuring vascular congestion at 0.5 mg/kg, ip at 4 days post infection and measured on day 8 by H and E staining based microscopic method; assay type: functional, organism-based; details: HM-1:IMSS, time 4.0 day
[19] = tested on: Entamoeba histolytica; test: Binding affinity to Entamoeba histolytica […] trophozoites actin assessed as induction of polarization of polymerized actin at IC50 concentration incubated for 1 hrs by […] staining based confocal microscopic analysis
[20] = tested on: Entamoeba histolytica; test: Antimicrobial activity against Entamoeba histolytica […] trophozoites infected in Syrian hamster assessed as ALP level at 0.05 mg/kg, ip at 4 days post infection and measured on day 8 (reference value: 638 +/- 50 U/L); assay type: functional, HM-1:IMSS; details: time 4 day
[21] = tested on: Entamoeba histolytica; test: Antimicrobial activity against Entamoeba histolytica […] trophozoites infected in Syrian hamster assessed as ALT level at 0.05 mg/kg, ip at 4 days post infection and measured on day 8 (reference value: 276 +/- 24 U/L); assay type: functional, HM-1:IMSS; details: time 4 day
[22] = tested on: Entamoeba histolytica; test: Antimicrobial activity against Entamoeba histolytica […] trophozoites infected in Syrian hamster assessed as triglycerides level at 0.05 mg/kg, ip at 4 days post infection and measured on day 8 (reference value: 395 +/- 41 mg/dl); assay type: functional, HM-1:IMSS; details: time 4 day
[23] = tested on: Entamoeba histolytica; test: Antimicrobial activity against Entamoeba histolytica […] trophozoites infected in Syrian hamster assessed as blood ureic nitrogen level at 0.05 mg/kg, ip at 4 days post infection and measured on day 8 (reference value: […]); assay type: functional, HM-1:IMSS; details: time 4 day
[24] = tested on: Entamoeba histolytica; test: Antimicrobial activity against Entamoeba histolytica […] trophozoites infected in Syrian hamster assessed as creatinine level at 0.05 mg/kg, ip at 4 days post infection and measured on day 8 (reference value: 0.9 +/- 0.06 mg/dl); assay type: functional, HM-1:IMSS; details: time 4 day
[25] = tested on: Entamoeba histolytica; test: Antimicrobial activity against Entamoeba histolytica […] trophozoites infected in Syrian hamster assessed as total leukocytes at 0.05 mg/kg, ip at 4 days post infection and measured on day 8 (reference value: 18 +/- 16 […]/mm3); assay type: functional, HM-1:IMSS; details: time 4 day
[26] = tested on: Entamoeba histolytica; test: Antimicrobial activity against Entamoeba histolytica […] trophozoites infected in Syrian hamster assessed as platelets at 0.05 mg/kg, ip at 4 days post infection and measured on day 8 (reference value: 439 +/- 108 […]); assay type: functional, HM-1:IMSS; details: time 4 day
[27] = tested on: Entamoeba histolytica; test: Antimicrobial activity against Entamoeba histolytica […] trophozoites infected in Syrian hamster assessed as glucose level at 0.05 mg/kg, ip at 4 days post infection and measured on day 8 (reference value: 126 +/- 18 mg/dl); assay type: functional, HM-1:IMSS; details: time 4 day
[28] = tested on: BEAS-2B; test: Cytotoxicity against human BEAS-2B cells assessed as reduction in cell viability after 24 hrs by MTT assay; assay type: cell-based
[29] = tested on: CHO-K1; test: Cytotoxicity against CHO-K1 cells assessed as reduction in cell viability after 24 hrs by MTT assay; assay type: cell-based; details: Cricetulus griseus, CHO-K1, 24 h
[30] = tested on: Entamoeba histolytica; test: Antimicrobial activity against Entamoeba histolytica […] trophozoites infected in Syrian hamster assessed as total bilirubin level at 0.1 mg/kg, ip at 4 days post infection and measured on day 8 (reference value: 0.8 +/- 0.2 mg/dl); assay type: functional, HM-1:IMSS; details: time 4 day
[31] = tested on: Entamoeba histolytica; test: Antimicrobial activity against Entamoeba histolytica […] trophozoites infected in Syrian hamster assessed as ALT level at 0.1 mg/kg, ip at 4 days post infection and measured on day 8 (reference value: 276 +/- 24 U/L); assay type: functional, HM-1:IMSS; details: time 4 day
[32] = tested on: Entamoeba histolytica; test: Antimicrobial activity against Entamoeba histolytica […] trophozoites infected in Syrian hamster assessed as ALP level at 0.1 mg/kg, ip at 4 days post infection and measured on day 8 (reference value: 638 +/- 50 U/L); assay type: functional, HM-1:IMSS; details: time 4 day
[33] = tested on: Entamoeba histolytica; test: Binding affinity to Entamoeba histolytica […] trophozoites actin assessed as formation of pseudo-plates at IC50 concentration incubated for 1 hrs by […] staining based confocal microscopic analysis
[34] = tested on: Entamoeba histolytica; test: Antimicrobial activity against Entamoeba histolytica […] trophozoites infected in Syrian hamster assessed as triglycerides level at 0.1 mg/kg, ip at 4 days post infection and measured on day 8 (reference value: 395 +/- 41 mg/dl); assay type: functional, HM-1:IMSS; details: time 4 day
[35] = tested on: Entamoeba histolytica; test: Antimicrobial activity against Entamoeba histolytica […] trophozoites infected in Syrian hamster assessed as blood ureic nitrogen level at 0.1 mg/kg, ip at 4 days post infection and measured on day 8 (reference value: […]); assay type: functional, HM-1:IMSS; details: time 4 day
[36] = tested on: Entamoeba histolytica; test: Antimicrobial activity against Entamoeba histolytica […] trophozoites infected in Syrian hamster assessed as urea level at 0.1 mg/kg, ip at 4 days post infection and measured on day 8 (reference value: 14 +/- 1 mg/dl); assay type: functional, HM-1:IMSS; details: time 4 day
[37] = tested on: Entamoeba histolytica; test: Antimicrobial activity against Entamoeba histolytica […] trophozoites infected in Syrian hamster assessed as creatinine level at 0.1 mg/kg, ip at 4 days post infection and measured on day 8 (reference value: 0.9 +/- 0.06 mg/dl); assay type: functional, HM-1:IMSS; details: time 4 day
[38] = tested on: Entamoeba histolytica; test: Antimicrobial activity against Entamoeba histolytica […] trophozoites infected in Syrian hamster assessed as platelets at 0.1 mg/kg, ip at 4 days post infection and measured on day 8 (reference value: 439 +/- 108 […]); assay type: functional, HM-1:IMSS; details: time 4 day
[39] = tested on: Entamoeba histolytica; test: Antimicrobial activity against Entamoeba histolytica […] trophozoites infected in Syrian hamster assessed as glucose level at 0.1 mg/kg, ip at 4 days post infection and measured on day 8 (reference value: 126 +/- 18 mg/dl); assay type: functional, HM-1:IMSS; details: time 4 day

O=c1c(O)c(-c2ccc(O)cc2)oc2cc(O)cc(O)c12 [KAEMPFEROL]
ED50 [1]: 2.06 µmol/kg | IC50 [2]: 0.23 µM | Activity [3]: Active | Activity [4]: Active | Activity [5]: Active | Activity [6]: Active | Activity [7]: Active | Activity [8]: 33.36% | Activity [9]: 0.4 mg/dL | inhibition [10]: Active | Activity [11]: 87.3% | Activity [12]: 4.2% | Activity [13]: 6.1% | Activity [14]: 2.4% | Activity [15]: 42 mg/dL | inhibition [16]: Active | inhibition [17]: Active | inhibition [18]: Active | Activity [19]: Active | Activity [20]: 348 U/L | Activity [21]: 55 U/L | Activity [22]: 442 mg/dL | Activity [23]: 19 mg/dL | Activity [24]: 0.5 mg/dL | Activity [25]: 19 thousand/mm3 | Activity [26]: 679 thousand/mm3 | Activity [27]: 58 mg/dL | IC50 [28]: 350 µM | IC50 [29]: 240 µM

Cc1ncc([N+](=O)[O-])n1CCO [METRONIDAZOLE]
IC50 [2]: 22.9 µM | Activity [4]: Active | Activity [5]: Active | Activity [6]: Active | Activity [7]: Active | Activity [8]: 49.11% | Activity [30]: 0.8 mg/dL | Activity [31]: 159 U/L | Activity [32]: 185 U/L | Activity [11]: 91.3% | Activity [12]: 5.5% | Activity [13]: 2.9% | Activity [14]: 0.3% | Activity [33]: Active | Activity [34]: 335 mg/dL | Activity [35]: 19 mg/dL | Activity [36]: 41 mg/dL | Activity [37]: 1 mg/dL | Activity [38]: 616 thousand/mm3 | Activity [39]: 148 mg/dL | IC50 [28]: 2240 µM | IC50 [29]: 2920 µM
